Measurements published in patent US7659333B2, “Fluorinated surfactants for use in making a fluoropolymer” (3M Innovative Properties Company, priority 2005, dated 2010).

Assay: Determination of bio-accumulation: urinary clearance pharmacokinetic study in rats
Assay type: in vivo, male Sprague Dawley rats
Experimental: The goal was to measure the total amount of parent compound eliminated via urinary output and estimate the rate of elimination.
The study utilized male Sprague Dawley rats, 6 to 8 weeks of age, and approximately 200 to 250 g body weight at study onset. The test compounds of table 2 were administered at a dose of 73 micro Moles per kg body weight in rats (N=3 animals per tested compound). All test compounds were prepared in sterile deionized water and given to rats via oral gavage. After test compounds administration, the rats were housed individually in metabolism cages for urine collection: 0 to 6 hours, 6 to 24 hours, 24 to 48 hours and 72 to 96 hours. Animals were observed throughout the study for clinical signs of toxicity. Gross necropsy was performed at the termination of each study (96 hours post-dose) with sera and liver samples being retained from each animal.
The concentration of the parent compound or metabolites thereof were quantitatively measured via fluorine NMR on each urine sample for each animal at each time point based on internally added standards.
T ½ and % recovery are based on elimination of the major metabolite—C3F7—O—CHFCOO^−. T1/2 is the renal half-life and is the time required for the amount of a particular substance in a biological system to be reduced to one half of its value by biological processes when the rate of removal is approximately exponential. In these examples the value of T1/2 is calculated by exponential least squares curve fitting (y=Ae^Bx and T1/2=0.693/B) where y represents the concentration of analyte in urine and x represents time in hours.

N.O=C(O)C(F)(F)C(F)(F)C(F)(F)C(F)(F)C(F)(F)C(F)(F)C(F)(F)F [APFO, ammonium perfluorooctanoic acid]
% Recovery (96 h) (male Sprague Dawley rats, 73 micro Moles per kg oral gavage, recovery in urine after 96 h, values marked * based on major metabolite C3F7—O—CHFCOO−): 6% | Compound-related Effects (male Sprague Dawley rats, 73 micro Moles per kg oral gavage, clinical signs observed, gross necropsy at 96 hours post-dose): Hepatomegaly | half-life (rat, in vivo, 73 micro Moles per kg body weight, male Sprague Dawley rats, 73 micro Moles per kg oral gavage, urine 0-96 h by fluorine NMR, exponential least squares fit, values marked * based on elimination of major metabolite C3F7—O—CHFCOO−, read-out: T ½ (h) (renal half-life)): ~550 h

C3F7—O—C2HF3—O—CH2—COO^−NH4 [Example 2]
parent compound in the urine (rat, in vivo, po): No parent compound observed in the urine
